Where a name gives a salt, the structure may show the parent alone.

For data set [1] the following is noted: cited from earlier work.
The conditions of data set [2]: cited from earlier work. The source holds these as a separate data set.
Data set [3] is described as follows: Solubility. In kind it is physicochemical.
Data set [4] can be described thus: Dissolution testing in USP-2 apparatus. As to conditions: aqueous media, at or below 85 μm. The format is physicochemical. The method, then: Usually the test result is established as an average for a pre-determined number of dosages (e.g., capsules, tablets, suspensions, or other dosage form), usually six. The dissolution media is typically maintained at 37° C. during the test. […] The amount of dissolved ziprasidone can be determined conventionally by HPLC, as hereinafter described.
A dosage form can be tested to assess its dissolution profile by dissolution testing it in a USP-2 apparatus. As previously described, the apparatus is implemented to contain 900 ml of 0.05 M NaH2 PO4 buffer, pH 7.5, containing 2% (w/w) sodium dodecyl sulfate. 1% pancreatin may be added if the dosage form being tested is a capsule, as previously noted. The pH can be adjusted as approprate using, for example, 5N NaOH or concentrated phosphoric acid. The USP-2 apparatus is equipped with paddles stirring at 75 rpm. […]
The amount of dissolved ziprasidone can be determined conventionally by HPLC. […] Quantification can be effected facilely by comparison of HPLC peak height (or area) with the peak height (or area) taken from a standard plot of concentration vs. peak height (or area) for standards of known concentration. As is conventional, the ziprasidone standard concentrations are selected to fall within a linear range of concentration vs absorbance for the UV detector employed.

Turning to `O=C1Cc2cc(CCN3CCN(c4nsc5ccccc45)CC3)c(Cl)cc2N1` [ziprasidone hydrochloride], the permeability result in data set [1] is recorded as “high permeability”. Besides, the aqueous solubility result in data set [2] was “relatively poor aqueous solubility”.
On to `O=C1Cc2cc(CCN3CCN(c4nsc5ccccc45)CC3)c(Cl)cc2N1` [ziprasidone], for which, in data set [3] (near-neutral pH), the “solubility compared with the acid addition salt” value is listed as “much less soluble”. Further, the solubility entry in data set [3] (slurry in THF/water process) is on record as “low solubility”. Further, the “dependence of dissolution rate on particle size” value in data set [4] was “does not vary substantially with particle size”.

Values taken from patent US6150366A, “Ziprasidone formulations” (Pfizer Inc., priority 1999, dated 2000).
